# “And” between values parts separate entries of the source, which are not always exact repeats. Equal values may be shown once.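 Exposure lasted 48 hours, with cells grown in 96-well plates and compounds tested at five concentrations. GI50 = concentration required for 50% inhibition of growth. TGI denotes the concentration required for complete inhibition of growth.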
# Experiments:
# Test in all cases: NCI-60 cell line screen, 48 h
# [1] = tested on: SK-OV-3 ovarian
# [2] = tested on: OVCAR-8 ovarian
# [3] = tested on: CCRF-CEM leukemia
# [4] = tested on: NCI-H23 lung
# [5] = tested on: SR leukemia
# [6] = tested on: RXF 393 renal
# [7] = tested on: HCT-15 colon
# [8] = tested on: HOP-62 NSCLC
# [9] = tested on: MALME-3M melanoma
# [10] = tested on: BT-549 breast
SMILES,TGI [1],TGI [2],TGI [3],TGI [4],TGI [5],TGI [6],TGI [7],TGI [8],TGI [9],GI50 [1],GI50 [2],GI50 [3],GI50 [4],GI50 [5],GI50 [7],GI50 [8],GI50 [9],GI50 [10],TGI [10],GI50 [6]
CN(CCS(=O)(=O)N1C(=O)C2CCCN2C(=O)[C@@H]1Cc1ccccc1)C(=O)OCc1ccccc1 (stereo partly specified),> 100 µM,> 100 µM,> 100 µM,> 100 µM,> 100 µM,> 100 µM,> 100 µM,> 100 µM,> 100 µM,–,–,–,–,–,–,–,–,–,–,–
O=C1C=C(Nc2ccc(Cl)cc2Cl)c2ccccc2C1=O,> 100 µM,> 100 µM,85 µM,54.5 µM,74.9 µM,> 100 µM,> 100 µM,> 100 µM,71 µM,–,–,–,–,–,–,–,–,–,–,–
OCC1C(OCc2ccccc2)C(OCc2ccccc2)C(OCc2ccccc2)CN1Cc1ccccc1 (stereo unspecified),> 100 µM,> 100 µM,> 100 µM,53.3 µM,> 100 µM,48.4 µM,> 100 µM,> 100 µM,91.5 µM,–,–,–,–,–,–,–,–,–,–,–
C/C(=N\N=C(N)N)C(CN1CCCCC1)C(c1ccccc1)c1c(O)c2ccccc2oc1=O (stereo unspecified),> 100 µM,> 100 µM,> 100 µM,> 100 µM,> 100 µM,> 100 µM,> 100 µM,> 100 µM,> 100 µM,–,–,–,–,–,–,–,–,–,–,–
Cc1ccc(O)c(NC(=O)c2cccc(Nc3ccnc(C(F)(F)F)c3)c2)c1,62 µM,19.7 µM,39.2 µM,21.2 µM,16.4 µM,–,42.8 µM,28.9 µM,78.5 µM,16.6 µM,5.52 µM,1.82 µM,2.27 µM,1.02 µM,15.5 µM,11.6 µM,19.2 µM,3.18 µM,21.6 µM,–
C=CN(C(=O)N1CCN(c2cc3c(cc2F)c(=O)c(C(=O)O)cn3C2CC2)CC1)c1nc(-c2ccc(OC)cc2)cs1,–,15.5 µM,> 100 µM,14.9 µM,> 100 µM,45.1 µM,> 100 µM,65.4 µM,> 100 µM,–,3.3 µM,3.45 µM,3.48 µM,2.69 µM,2.86 µM,3.37 µM,4.11 µM,2.39 µM,7.52 µM,5.2 µM
O=C(C(=O)c1cc2ccccc2[nH]1)c1cc2ccccc2[nH]1,> 347 µM,> 347 µM,> 347 µM,> 347 µM,> 110 µM,> 347 µM,> 347 µM,> 347 µM,> 347 µM,–,–,–,–,–,–,–,–,–,–,–
COC1CCC(OS(C)(=O)=O)C(CO)O1 (stereo unspecified),> 100 µM,> 100 µM,> 100 µM,> 100 µM,> 100 µM,> 100 µM,> 100 µM,> 100 µM,> 100 µM,–,–,–,–,–,–,–,–,–,–,–
C=C(c1ccc(OC)c(/C=C/C(=O)c2ccc3c(c2)OCO3)c1)c1cc(OC)c(OC)c(OC)c1,> 100 µM,18.2 µM,> 100 µM,> 100 µM,> 100 µM,5.17 µM,–,> 100 µM,> 100 µM,5.07 µM,2.89 µM,0.916 µM,3.2 µM,0.907 µM,–,4.16 µM,> 100 µM,2.15 µM,7.27 µM,1.98 µM
C=C(CCCCC)CN1CCCC1C(C)=O (stereo unspecified),> 100 µM,> 95.1 µM,41.2 µM,65.1 µM,40.1 µM,> 95.7 µM,> 100 µM,64.1 µM,> 100 µM,–,–,–,–,–,–,–,–,–,–,–
O=C(/C=C\c1ccccc1O)c1ccc(O)cc1O,> 100 µM,> 100 µM,> 100 µM,> 100 µM,> 100 µM,> 100 µM,> 100 µM,> 100 µM,> 100 µM,–,–,–,–,–,–,–,–,–,–,–
Oc1ccc(C=Nc2ccccc2O)cc1,> 100 µM,> 100 µM,> 100 µM,> 100 µM,> 100 µM,> 100 µM,> 100 µM,> 100 µM,–,–,–,–,–,–,–,–,–,–,> 100 µM,–
CCC[C@H]1O[C@@H]2CC(=O)O[C@@H]2C2=C1C(=O)C=CC2=O,> 56.3 µM,> 74.9 µM,> 47.9 µM,18.5 µM,49.8 µM,30.4 µM,32.4 µM,> 95 µM,32.3 µM,–,–,–,–,–,–,–,–,–,–,–
CC[C@H](C)[C@H](NC(=O)[C@H]1CCCCN1C)C(=O)N(C)[C@H](C[C@@H](OC(C)=O)c1cccc(C(=O)N[C@@H](Cc2ccccc2)C[C@H](C)C(=O)OC)n1)C(C)C,> 25 µM,> 25 µM,> 25 µM,> 25 µM,> 25 µM,–,9.64 µM,> 25 µM,–,0.00308 µM and 0.00314 µM,0.00797 µM and 0.0056 µM,0.00495 µM and 0.0025 µM,0.00443 µM and 0.00521 µM,0.00055 µM and 0.0025 µM,0.00815 µM and 0.00702 µM,0.0065 µM and 0.00427 µM,–,0.0025 µM,0.222 µM,0.00316 µM
